Test results as given in the supplement of paper PMC4862054.

Each compound was assayed on MDA-MB-453 (assay: normalised viability (% of control), CellTiter-Blue; higher = more viable cells (about 100 = DMSO control)). Conditions: incubation time: 72 h.
Experimental: (§1)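 DSRT, CellTiter-Blue viability, 72 h incubation. Signal is normalised to DMSO and benzethonium chloride controls. Value is the normalised response at dose 9.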
With `N[C@@H](CSC(c1ccccc1)(c1ccccc1)c1ccccc1)C(=O)O` [S-trityl-L-cysteine] (40000 nM) the normalised viability was 83.2%.
Work on `CNCc1ccc(-c2[nH]c3cc(F)cc4c3c2CCNC4=O)cc1` [Rucaparib] (10000 nM) yielded a normalised viability of 32.1%.
For `CO[C@H]1/C=C\C=C(/C)C(=O)NC2=CC(=O)C(NCCN(C)C)=C(C[C@@H](C)C[C@H](OC)[C@H](O)[C@@H](C)/C=C(\C)[C@@H]1OC(N)=O)C2=O` [Alvespimycin] (1000 nM), the normalised viability was 3.62%.
For `CN(C)/N=N/c1[nH]cnc1C(N)=O` [Dacarbazine] (10000 nM), the normalised viability was 105%.
Work on `Cc1ccc(-n2nc(C(C)(C)C)cc2NC(=O)Nc2ccc(OCCN3CCOCC3)c3ccccc23)cc1` [Doramapimod] (10000 nM) yielded a normalised viability of 62.7%.
With `Cc1ccc(C(=O)Nc2ccc(CN3CCN(C)CC3)c(C(F)(F)F)c2)cc1C#Cc1cnc2cccnn12` [Ponatinib] (1000 nM) the normalised viability was 38.4%.
`COc1cc2nccc(Oc3ccc(NC(=O)C4(C(=O)Nc5ccc(F)cc5)CC4)cc3)c2cc1OC` [Cabozantinib] (1000 nM) gave a normalised viability of 37.1%.
For `CC1(C)NC(=O)N(c2ccc([N+](=O)[O-])c(C(F)(F)F)c2)C1=O` [Nilutamide] (10000 nM), the normalised viability was 106%.

What follows are compounds tested on CAL-85-1 in the same assay as above. Conditions: incubation time: 72 h.
Experimental: as §1
`N[C@@H](CSC(c1ccccc1)(c1ccccc1)c1ccccc1)C(=O)O` [S-trityl-L-cysteine] (40000 nM) was tested, and the normalised viability was 87.5%.
With `CNCc1ccc(-c2[nH]c3cc(F)cc4c3c2CCNC4=O)cc1` [Rucaparib] (10000 nM) the normalised viability was 45.8%.
For `CO[C@H]1/C=C\C=C(/C)C(=O)NC2=CC(=O)C(NCCN(C)C)=C(C[C@@H](C)C[C@H](OC)[C@H](O)[C@@H](C)/C=C(\C)[C@@H]1OC(N)=O)C2=O` [Alvespimycin] (1000 nM), the normalised viability was 18.6%.
`CN(C)/N=N/c1[nH]cnc1C(N)=O` [Dacarbazine] (10000 nM) gave a normalised viability of 87.5%.
Compound `Cc1ccc(-n2nc(C(C)(C)C)cc2NC(=O)Nc2ccc(OCCN3CCOCC3)c3ccccc23)cc1` [Doramapimod] (10000 nM) has a normalised viability of 72.6%.
For `Cc1ccc(C(=O)Nc2ccc(CN3CCN(C)CC3)c(C(F)(F)F)c2)cc1C#Cc1cnc2cccnn12` [Ponatinib] (1000 nM), the normalised viability was 50.1%.
In the case of `COc1cc2nccc(Oc3ccc(NC(=O)C4(C(=O)Nc5ccc(F)cc5)CC4)cc3)c2cc1OC` [Cabozantinib] (1000 nM), the normalised viability is reported as 45.1%.
For `CC1(C)NC(=O)N(c2ccc([N+](=O)[O-])c(C(F)(F)F)c2)C1=O` [Nilutamide] (10000 nM), the normalised viability was 90.7%.

These compounds were tested on HDQ-P1 in the same assay as above. Conditions: incubation time: 72 h.
Experimental: as §1
Compound `N[C@@H](CSC(c1ccccc1)(c1ccccc1)c1ccccc1)C(=O)O` [S-trityl-L-cysteine] (40000 nM) has a normalised viability of 65%.
`CNCc1ccc(-c2[nH]c3cc(F)cc4c3c2CCNC4=O)cc1` [Rucaparib] (10000 nM) gave a normalised viability of 106%.
For `CO[C@H]1/C=C\C=C(/C)C(=O)NC2=CC(=O)C(NCCN(C)C)=C(C[C@@H](C)C[C@H](OC)[C@H](O)[C@@H](C)/C=C(\C)[C@@H]1OC(N)=O)C2=O` [Alvespimycin] (1000 nM), the normalised viability was 29.6%.
`CN(C)/N=N/c1[nH]cnc1C(N)=O` [Dacarbazine] (10000 nM) was tested, and the normalised viability was 104%.
`Cc1ccc(-n2nc(C(C)(C)C)cc2NC(=O)Nc2ccc(OCCN3CCOCC3)c3ccccc23)cc1` [Doramapimod] (10000 nM) gave a normalised viability of 81%.
`Cc1ccc(C(=O)Nc2ccc(CN3CCN(C)CC3)c(C(F)(F)F)c2)cc1C#Cc1cnc2cccnn12` [Ponatinib] (1000 nM) showed a normalised viability of 21.9%.
For `COc1cc2nccc(Oc3ccc(NC(=O)C4(C(=O)Nc5ccc(F)cc5)CC4)cc3)c2cc1OC` [Cabozantinib] (1000 nM), the normalised viability was 88.5%.
`CC1(C)NC(=O)N(c2ccc([N+](=O)[O-])c(C(F)(F)F)c2)C1=O` [Nilutamide] (10000 nM) showed a normalised viability of 136%.

What follows are compounds tested on DU-4475 in the same assay as above. Conditions: incubation time: 72 h.
Experimental: as §1
For `N[C@@H](CSC(c1ccccc1)(c1ccccc1)c1ccccc1)C(=O)O` [S-trityl-L-cysteine] (40000 nM), the normalised viability was 92.2%.
Work on `CNCc1ccc(-c2[nH]c3cc(F)cc4c3c2CCNC4=O)cc1` [Rucaparib] (10000 nM) yielded a normalised viability of 46.2%.
With `CO[C@H]1/C=C\C=C(/C)C(=O)NC2=CC(=O)C(NCCN(C)C)=C(C[C@@H](C)C[C@H](OC)[C@H](O)[C@@H](C)/C=C(\C)[C@@H]1OC(N)=O)C2=O` [Alvespimycin] (1000 nM) the normalised viability was -0.26%.
In the case of `CN(C)/N=N/c1[nH]cnc1C(N)=O` [Dacarbazine] (10000 nM), the normalised viability is reported as 103%.
Work on `Cc1ccc(-n2nc(C(C)(C)C)cc2NC(=O)Nc2ccc(OCCN3CCOCC3)c3ccccc23)cc1` [Doramapimod] (10000 nM) yielded a normalised viability of 102%.
With `Cc1ccc(C(=O)Nc2ccc(CN3CCN(C)CC3)c(C(F)(F)F)c2)cc1C#Cc1cnc2cccnn12` [Ponatinib] (1000 nM) the normalised viability was 50.2%.
`COc1cc2nccc(Oc3ccc(NC(=O)C4(C(=O)Nc5ccc(F)cc5)CC4)cc3)c2cc1OC` [Cabozantinib] (1000 nM) was tested, and the normalised viability was 108%.
`CC1(C)NC(=O)N(c2ccc([N+](=O)[O-])c(C(F)(F)F)c2)C1=O` [Nilutamide] (10000 nM) was tested, and the normalised viability was 97.4%.

These compounds were tested on CAL-51 in the same assay as above. Conditions: incubation time: 72 h.
Experimental: as §1
For `N[C@@H](CSC(c1ccccc1)(c1ccccc1)c1ccccc1)C(=O)O` [S-trityl-L-cysteine] (40000 nM), the normalised viability was 87%.
`CNCc1ccc(-c2[nH]c3cc(F)cc4c3c2CCNC4=O)cc1` [Rucaparib] (10000 nM) gave a normalised viability of 40.5%.
With `CO[C@H]1/C=C\C=C(/C)C(=O)NC2=CC(=O)C(NCCN(C)C)=C(C[C@@H](C)C[C@H](OC)[C@H](O)[C@@H](C)/C=C(\C)[C@@H]1OC(N)=O)C2=O` [Alvespimycin] (1000 nM) the normalised viability was 6.39%.
`CN(C)/N=N/c1[nH]cnc1C(N)=O` [Dacarbazine] (10000 nM) was tested, and the normalised viability was 91.2%.
Work on `Cc1ccc(-n2nc(C(C)(C)C)cc2NC(=O)Nc2ccc(OCCN3CCOCC3)c3ccccc23)cc1` [Doramapimod] (10000 nM) yielded a normalised viability of 86.8%.
Compound `Cc1ccc(C(=O)Nc2ccc(CN3CCN(C)CC3)c(C(F)(F)F)c2)cc1C#Cc1cnc2cccnn12` [Ponatinib] (1000 nM) has a normalised viability of 42%.
`COc1cc2nccc(Oc3ccc(NC(=O)C4(C(=O)Nc5ccc(F)cc5)CC4)cc3)c2cc1OC` [Cabozantinib] (1000 nM) showed a normalised viability of 86.5%.
Compound `CC1(C)NC(=O)N(c2ccc([N+](=O)[O-])c(C(F)(F)F)c2)C1=O` [Nilutamide] (10000 nM) has a normalised viability of 89.4%.

Each compound was assayed on CAL-148 in the same assay as above. Conditions: incubation time: 72 h.
Experimental: as §1
`N[C@@H](CSC(c1ccccc1)(c1ccccc1)c1ccccc1)C(=O)O` [S-trityl-L-cysteine] (40000 nM) gave a normalised viability of 114%.
`CNCc1ccc(-c2[nH]c3cc(F)cc4c3c2CCNC4=O)cc1` [Rucaparib] (10000 nM) was tested, and the normalised viability was 37.5%.
